Measurements: ChEMBL document CHEMBL1151094, “Benzenepropanoic acids containing chromanone or naphthalenone moieties are potent and orally active leukotriene B4 antagonists” (Bioorg Med Chem Lett, 1994)

What follows are compounds tested against T1, Leukotriene B4 receptor (Homo sapiens, UniProt Q9NPC1+Q15722) (assay: Inhibition of leukotriene B4 (LTB4) binding to its receptor on intact human neutrophils). Conditions: not given.
T1 sequence (Q15722 whole entry, looked up): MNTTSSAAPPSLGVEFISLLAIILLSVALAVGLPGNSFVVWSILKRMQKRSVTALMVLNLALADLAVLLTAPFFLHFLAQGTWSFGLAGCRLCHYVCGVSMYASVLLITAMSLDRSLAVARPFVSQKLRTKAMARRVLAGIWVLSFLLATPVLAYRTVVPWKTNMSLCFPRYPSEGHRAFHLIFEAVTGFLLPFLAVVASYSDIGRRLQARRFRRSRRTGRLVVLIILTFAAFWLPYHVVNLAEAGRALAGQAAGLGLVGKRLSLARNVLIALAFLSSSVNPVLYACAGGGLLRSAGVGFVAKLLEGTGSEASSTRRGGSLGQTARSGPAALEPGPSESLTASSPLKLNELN
T1 sequence (Q9NPC1 whole entry, looked up): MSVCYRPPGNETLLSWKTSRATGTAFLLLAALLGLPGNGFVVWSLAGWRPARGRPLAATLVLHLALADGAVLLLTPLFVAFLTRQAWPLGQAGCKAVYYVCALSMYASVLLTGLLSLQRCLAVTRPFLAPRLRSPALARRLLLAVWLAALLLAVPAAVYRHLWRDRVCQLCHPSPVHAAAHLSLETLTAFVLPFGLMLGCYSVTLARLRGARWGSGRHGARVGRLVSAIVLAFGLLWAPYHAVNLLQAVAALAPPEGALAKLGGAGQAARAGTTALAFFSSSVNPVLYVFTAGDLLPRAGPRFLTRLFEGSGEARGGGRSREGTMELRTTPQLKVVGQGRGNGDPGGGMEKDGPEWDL

Row | Ki [nM] | Structure (SMILES)
1 | 11 | COc1ccc(/C=C/CCCCOc2ccc(C(=O)c3cccc(C(=O)O)c3)cc2CCC(=O)O)cc1
2 | 1 | COc1cc(C(=O)N(C(C)C)C(C)C)ccc1OCCCCCOc1ccc(C(=N)N)cc1.O=C(O)/C=C\C(=O)O [MOXILUBANT MALEATE]
3 | 320 | CCCc1c(OCCCCCOc2cc3c(cc2C(C)=O)CCC(C(=O)O)O3)ccc(C(C)=O)c1O (racemic) [ABLUKAST]

Each compound was assayed on Cavia porcellus (assay: Percent of control LTB4 -induced bronchoconstriction in guinea pigs before 20 hours pretreatment at 1.0 mg/kg). Conditions: not given.
Format: functional

Row | Structure (SMILES) | Control [%]
4 | CCCc1c(OCCCCCCc2cccc(OCCCC(=O)O)c2CCC(=O)O)ccc2c1CCCC2=O | 19
5 | CCCc1c(OCCCCCCc2cccc(OCCCCCC(=O)O)c2CCC(=O)O)ccc2c1CCCC2=O | 25
6 | CCCc1c(OCCCOc2ccc(-c3cscn3)c(OC)c2CC2CC2)ccc2c1OC(C(=O)O)CC2 (configuration not stated) | 36
7 | CCCc1c(OCCCCCCc2ccc(OCCCC(=O)O)cc2CCC(=O)O)ccc2c1OCCC2=O | 45
8 | CC(C)(CCCCOc1cc(-c2ccccc2)cc(-c2ccccc2)n1)c1nnn[nH]1 | 15
9 | CCCc1c(OCCCCCCc2cccc(OCCCCCCC(=O)O)c2CCC(=O)O)ccc2c1OCCC2=O | 73
10 | CCCc1c(OCCCCCCc2cccc(OCCCCCCCCC(=O)O)c2CCC(=O)O)ccc2c1OCCC2=O | 24
11 | CCCc1c(OCCCCCCc2cccc(OCCCCC(=O)O)c2CCC(=O)O)ccc2c1OCCC2=O | 26
12 | CCCc1c(OCCCCCCc2cccc(OCCCC(=O)O)c2CCC(=O)O)ccc2c1OCCC2=O | 20
13 | CCCc1c(OCCCCCCc2cccc(OCCCCCCCC(=O)O)c2CCC(=O)O)ccc2c1OCCC2=O | 27

Each compound was assayed against T1, Leukotriene B4 receptor (assay: Inhibition of LTB4 -induced bronchoconstriction in guinea pigs following 0.1 mg/kg prior to challenge.). Conditions: Cavia porcellus; target entry is the homologue from another species; at 0.1 mg/kg.
Format: functional, organism-based
Parameters: dose 0.1 mg/kg; scale not given: the % may be the effect or the level left

Row | Control [%] | Structure (SMILES)
14 | 88 | COc1ccc(/C=C/CCCCOc2ccc(C(=O)c3cccc(C(=O)O)c3)cc2CCC(=O)O)cc1
15 | 101 | COc1ccc(/C=C/CCCCOc2cccc(OCCCCC(=O)O)c2CCC(=O)O)cc1
16 | 80 | COc1cc(C(=O)N(C(C)C)C(C)C)ccc1OCCCCCOc1ccc(C(=N)N)cc1.O=C(O)/C=C\C(=O)O [MOXILUBANT MALEATE]
17 | 91 | CCCc1c(OCCCOc2ccc(C(C)=O)c(OC)c2CCC)ccc2c1OC(C(=O)O)CC2 (racemic)
